# In patent publication US11214803B2, “Modulators of YAP1 expression” (Ionis Pharmaceuticals, Inc., priority 2019, dated 2022):
# Strand notation (5' to 3'): a small letter for the sugar, then the base; units joined by * are phosphorothioate-linked, units joined directly phosphodiester-linked; [ ] holds rarer units or linkages, { } end groups; capitals alone tell only the bases. e = 2'-O-(2-methoxyethyl) (MOE); k = constrained ethyl (cEt); [5mC] = 5-methylcytosine; d = 2'-deoxy (DNA); m = 2'-O-methyl
# System: Yap1 mRNA
# Experiment: Antisense inhibition of human Yap1 in SNU-449 cells by modified oligonucleotides, single dose (Example 5, RTS36584)
# Type: cell-based
# Details: Table 39; SNU-449 cells, 10,000 cells per well, free uptake, 2,000 nM oligonucleotide, approx. 48 hours; RTS36584; normalized to RIBOGREEN; Yap1 mRNA relative to untreated control
# Procedure, shortened: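 Plate SNU-449 cells at 10,000 per well; add 2,000 nM modified oligonucleotide without transfection reagent; after ~48 h isolate RNA, run qRT-PCR with RTS36584, normalise to RIBOGREEN and report % UTC.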
row,Substance,YAP1 (% UTC)
1,1198370 (kT*dG*dT*d[5mC]*dT*d[5mC]*dA*dT*dG*d[5mC]*d[5mC]*kT*eT*kA*eT*kA; antisense) [Compound 1198370],20
2,1198397 (k[5mC]*dA*d[5mC]*dT*dT*dT*dT*dA*d[5mC]*dA*dT*kT*eA*kG*eG*kA; antisense) [Compound 1198397],17

# Same assay, conditions: Table 40 (separate experiment); SNU-449 cells, 10,000 cells per well, free uptake, 2,000 nM oligonucleotide, approx. 48 hours; RTS36584; normalized to RIBOGREEN; Yap1 mRNA relative to untreated control
row,Substance,YAP1 (% UTC)
1,1198803 (antisense kT*eT*kA*dG*dA*d[5mC]*dT*dA*dA*dG*dT*dA*eA*eG*kG*kT) [Compound 1198803],62
2,1198799 (antisense k[5mC]*eT*kA*dA*dG*dT*dA*dA*dG*dG*dT*dT*eT*e[5mC]*k[5mC]*k[5mC]) [Compound 1198799],18
3,1198722 (kA*eT*kA*dT*dG*dG*dA*dA*dA*dT*dT*dG*eT*e[5mC]*kT*k[5mC]; antisense) [Compound 1198722],48

# Same assay, conditions: Table 41; SNU-449 cells, 10,000 cells per well, free uptake, 2,000 nM modified oligonucleotide, approximately 48 hours; RTS36584; normalized to RIBOGREEN; Yap1 mRNA relative to untreated control cells
row,Substance,YAP1 (% UTC)
1,1198655 (k[5mC]*kA*d[5mC]*dT*dT*dT*dT*dA*d[5mC]*dA*dT*dT*kA*eG*kG*eA; antisense) [Compound 1198655],30
2,"1198740 (AACACTGAGGTATAAC; all C 5-methyl, sugars by position and backbone not given here; position 2 notation garbled, mixed cEt/MOE/deoxy gapmer) [Compound 1198740]",39

# Same assay, conditions: Table 42 (separate experiment); SNU-449 cells, 10,000 cells per well, free uptake, 2,000 nM modified oligonucleotide, approximately 48 hours; RTS36584; normalized to RIBOGREEN; Yap1 mRNA relative to untreated control cells
row,Substance,YAP1 (% UTC)
1,1198647 (kG*kG*dT*dA*dT*dA*dA*d[5mC]*dT*dG*dG*dG*k[5mC]*eA*kA*eA) [Compound 1198647],47
2,1198231 (kT*kT*dG*dG*dA*dA*dG*dA*dT*d[5mC]*dT*eG*eA*eA*kA*k[5mC]) [Compound 1198231],73

# Same assay, conditions: Table 43 experiment; SNU-449 cells, 10,000 cells per well, free uptake, 2,000 nM, approximately 48 hours; RTS36584; Yap1 mRNA normalized to RIBOGREEN, relative to untreated control cells
row,Substance,YAP1 (% UTC)
1,1198244 (kA*kG*dA*dT*dT*dT*dA*dG*dG*dA*dT*eG*e[5mC]*eA*kT*kG; antisense) [Compound 1198244],24
2,1198266 (kT*kG*dT*dA*dT*dG*dT*d[5mC]*dA*dG*dA*eA*eG*eA*kG*kT; antisense) [Compound 1198266],25

# Same assay, conditions: Table 44 experiment; SNU-449 cells, 10,000 cells per well, free uptake, 2,000 nM, approximately 48 hours; RTS36584; Yap1 mRNA normalized to RIBOGREEN, relative to untreated control cells
row,Substance,YAP1 (% UTC)
1,1198513 (k[5mC]*kA*dA*d[5mC]*dT*d[5mC]*dT*dT*dA*dT*dA*eT*kG*eG*kT*eT; antisense) [Compound 1198513],63
2,1198492 (antisense kG*k[5mC]*dT*dT*dT*dG*dG*dA*dA*dG*dA*eT*k[5mC]*eT*kG*eA) [Compound 1198492],15
3,1198488 (antisense kG*kG*dA*dA*dG*dA*dT*d[5mC]*dT*dG*dA*eA*kA*e[5mC]*kT*e[5mC]) [Compound 1198488],66
4,1198520 (kT*kG*dT*dA*dA*dT*dA*dT*dT*dG*d[5mC]*eA*kA*eT*k[5mC]*eT; antisense) [Compound 1198520],51
5,1198517 (kA*kA*dT*dA*dT*dT*dG*d[5mC]*dA*dA*dT*e[5mC]*kT*eG*kT*e[5mC]; antisense) [Compound 1198517],36

# Same assay, conditions: Table 45; Yap1 mRNA as percent of untreated control, SNU-449 cells, single dose
row,Substance,YAP1 (% UTC)
1,1198957 (kT*kT*dT*dA*dT*dG*dT*dA*dA*dT*dA*kT*dT*kG*d[5mC]*kA; antisense) [Compound 1198957],81
2,1198925 (k[5mC]*kT*dT*dT*dG*dG*dA*dA*dG*dA*dT*k[5mC]*dT*kG*dA*kA; antisense) [Compound 1198925],52
3,1198897 (kA*kT*dG*dG*dA*dA*dA*dT*dT*dG*dT*k[5mC]*dT*k[5mC]*dA*kT; antisense) [Compound 1198897],61

# Same assay, conditions: Table 48; Yap1 mRNA level relative to untreated control; modified oligonucleotides targeting SEQ ID NO.: 1 and 2
row,Substance,YAP1 (% UT)
1,1009396 (k[5mC]*kA*k[5mC]*dT*dG*dA*dG*dG*dT*dA*dT*dA*dA*k[5mC]*kT*kG; antisense) [Compound 1009396],41
2,1198331 (k[5mC]*kA*kG*dA*dT*dT*dT*dA*dG*dG*dA*dT*kG*e[5mC]*kA*eT; antisense) [Compound 1198331],26
3,1197215 (antisense kA*kA*kG*dT*dG*dT*dA*dT*dG*dT*d[5mC]*dA*dG*kA*kA*kG) [Compound 1197215],13
4,1198325 (kA*kG*kG*dA*dT*dG*d[5mC]*dA*dT*dG*dG*dT*kT*eT*kT*eT; antisense) [Compound 1198325],34

# Same assay, conditions: Table 49; Yap1 mRNA level relative to untreated control; modified oligonucleotides targeting SEQ ID NO.: 1 and 2
row,Substance,YAP1 (% UT)
1,1198358 (kT*kT*kT*dA*dA*dA*dG*dT*dG*dT*dA*dT*kG*eT*k[5mC]*eA; antisense) [Compound 1198358],15
2,1198303 (kG*kG*kT*dA*dT*dA*dA*d[5mC]*dT*dG*dG*dG*k[5mC]*eA*kA*eA; antisense) [Compound 1198303],27
3,1198338 (k[5mC]*kT*k[5mC]*dT*dT*dA*dT*dA*dT*dG*dG*dT*kT*eT*kT*eG; antisense) [Compound 1198338],24

# Same assay, conditions: Table 50; Yap1 mRNA remaining as percent of untreated control (UT), SNU-449 cells, single dose
row,Substance,YAP1 (% UT)
1,1095435 (antisense kA*k[5mC]*kT*dG*dA*dG*dG*dT*dA*dT*dA*dA*k[5mC]*kT*kG*eG) [Compound 1095435],39
2,1198601 (antisense kA*kT*kT*dG*d[5mC]*dA*dA*dT*d[5mC]*dT*dG*dT*k[5mC]*kT*kG*eA) [Compound 1198601],50

# Same assay, conditions: Table 51; Yap1 mRNA remaining as percent of untreated control (UT), SNU-449 cells, single dose
row,Substance,YAP1 (% UT)
1,1197263 (kG*kA*k[5mC]*dA*mA*d[5mC]*dT*d[5mC]*dT*dT*dA*dT*dA*kT*kG*kG) [Compound 1197263],91
2,1200798 (kT*kA*kT*dT*dA*mG*dA*dG*dT*dA*dT*dG*dT*kG*kG*k[5mC]; antisense) [Compound 1200798],7
3,1197268 (kA*kA*kG*dT*mG*dT*dA*dT*dG*dT*d[5mC]*dA*dG*kA*kA*kG) [Compound 1197268],25
4,"1197272 (^{m}C_{ks}T_{ks}T_{ks}T_{ds}A_{ys}A_{ds}A_{ds}G_{ds}T_{ds}G_{ds}T_{ds}A_{ds}T_{ds}G_{ks}T_{ks}^{m}C_{k}; as printed in the source, key not given here) [Compound 1197272]",32
5,1197267 (kA*kT*kG*dT*mA*dA*dT*dA*dT*dT*dG*d[5mC]*dA*kA*kT*k[5mC]) [Compound 1197267],62
6,1197305 (kA*k[5mC]*kT*d[5mC]*mU*dT*dA*dT*dA*dT*dG*dG*dT*kT*kT*kT; antisense) [Compound 1197305],30

# Same assay, conditions: Table 52; Yap1 mRNA, modified oligonucleotides targeting SEQ ID NO: 1 and 2
row,Substance,YAP1 (% UT)
1,1200857 (kA*kG*kT*dG*dT*mA*dT*dG*dT*d[5mC]*dA*dG*dA*kA*kG*kA; antisense) [Compound 1200857],4
2,1200792 (kA*kT*kA*dT*dG*mG*dA*dA*dA*dT*dT*dG*dT*k[5mC]*kT*k[5mC]; antisense) [Compound 1200792],52
3,1200853 (kA*kT*kG*dT*dA*mA*dT*dA*dT*dT*dG*d[5mC]*dA*kA*kT*k[5mC]; antisense) [Compound 1200853],69

# Same assay, conditions: Yap1 mRNA, percent of untreated control; modified oligonucleotides targeting SEQ ID NO: 1 and 2; Table 47
row,Substance,YAP1 (% UT)
1,1198876 (kT*kA*dA*dA*dG*dT*dG*dT*dA*dT*dG*kT*e[5mC]*kA*eG*kA; antisense) [Compound 1198876],31
2,1197184 (antisense kA*kG*k[5mC]*dA*d[5mC]*dT*dT*dT*dT*dA*d[5mC]*dA*dT*kT*kA*kG) [Compound 1197184],20
3,1009326 (kT*kA*kT*dT*dA*dG*dA*dG*dT*dA*dT*dG*dT*kG*kG*k[5mC]; antisense) [Compound 1009326],10
4,1197194 (antisense kT*kT*kA*dG*dG*dA*dT*dG*d[5mC]*dA*dT*dG*dG*kT*kT*kT) [Compound 1197194],37
